Where two headings read alike, the source gives them in different places. [ ]: non-standard residue; d: D form. Dap = NC[C@H](N)C(=O)O
Columns and labels:
MASP-2 [1] = assay: recombinant catalytic fragment of human MASP-2; conditions: up to 1 h
MASP-1 = conditions: cited from earlier work
MASP-2 [2] = conditions: cited from earlier work
trypsin = conditions: fold more potent than tested SFMI2 variants; cited from earlier work

Substance | cleaved bond (MASP-2 [1]) | MASP-1 inhibition (MASP-1) | MASP-2 inhibition (MASP-2 [2]) | MASP-2 inhibition (MASP-2 [2]; listed as wild-type SFTI) | potency on trypsin relative to SFMI2 variants (trypsin)
HELM PEPTIDE1{[ac].G.Y.C.S.R.S.Y.P.P.V.C.I.P.D.[am]}$PEPTIDE1,PEPTIDE1,4:R3-12:R3$$$V2.0 (SMILES CC[C@H](C)[C@H](NC(=O)[C@@H]1CSSC[C@H](NC(=O)[C@H](Cc2ccc(O)cc2)NC(=O)CNC(C)=O)C(=O)N[C@@H](CO)C(=O)N[C@@H](CCCNC(=N)N)C(=O)N[C@@H](CO)C(=O)N[C@@H](Cc2ccc(O)cc2)C(=O)N2CCC[C@H]2C(=O)N2CCC[C@H]2C(=O)N[C@@H](C(C)C)C(=O)N1)C(=O)N1CCC[C@H]1C(=O)N[C@@H](CC(=O)O)C(N)=O) | Arg5-Ser6, 1 h | – | – | – | –
Ac-GY[Dap]SRSYPPVCIPD-NH2 | Arg5-Ser6, 1 h | – | – | – | –
SFTI: 14-amino acid sunflower trypsin inhibitor, smallest natural canonical trypsin inhibitor, cyclic | – | does not inhibit the MASPs | does not inhibit the MASPs | does not inhibit MASP-2 at all | about 1000 fold
